# Experimental data as given in patent US20240374631A1, “A COMPOSITION FOR IMPROVING GUT MICROBIOTA, BEHAVIOURAL PATTERN, ALPHA-SYNUCLEIN LEVELS, SLEEP PATTERN AND/OR SERUM MELATONIN” (GN Corporation Co Ltd, priority 2021, published 2024).
# System: gut microbiota
# Assay: Gut microbiome analysis (16S rRNA sequencing of fecal samples) in STAM model of NASH
# Format: in vivo, C57BL/6J mice
# Conditions: post-intervention
# Description: The study is reported in accordance with Animal Research: Reporting of In Vivo Experiments (ARRIVE) guidelines. C57BL/6J mice were obtained from Japan SLC, Inc. (Japan). All animals used in this study were cared for under the following guidelines: Act on Welfare and Management of Animals (Ministry of the Environment, Japan, Act No. 105 of Oct. 1, 1973), standards relating to the care and management of laboratory animals and relief of pain (Notice No. 88 of the Ministry of the Environment, Japan, Apr. 28, 2006) and the guidelines for proper conduct of animal experiments (Science Council of Japan, Jun. 1, 2006). Protocol approvals were obtained from SMC Laboratories, Japan's IACUC (Study reference no: […] Mice were maintained in a specific pathogen-free (SPF) facility under controlled conditions of temperature (23±3° C.), humidity (50±20%), lighting (12-hour artificial light and dark cycles; light from 8:00 to 20:00) and air exchange. The STAM model of NASH was induced as previously described [D10]. Mice were given a single subcutaneous injection of 200 μg streptozotocin (STZ, Sigma-Aldrich, USA) solution 2 days after birth and fed with a high-fat diet (HFD, 57 kcal % fat, Cat #HFD32, CLEA Japan, Inc., Japan) from 4-9 weeks of age. All mice develop liver steatosis and diabetes and at […] mice had established steatohepatitis, histologically. Studygroups: There were five study groups, described below. Eight mice were included in each study group. Eight NASH mice were orally administered vehicle supplemented with AFO-202 Beta Glucan at a dose of 1 mg/kg in a volume of 5 mL/kg once daily from 6 to 9 weeks of age. Eight NASH mice were orally administered vehicle supplemented with Telmisartan at a dose of 10 mg/kg once daily from 6 to 9 weeks of age. Frequency: Fecal samples were collected at the 6 weeks of age (before administration) and 9 weeks of age (before sacrifice). Procedure: At 6 weeks of age, fecal samples were collected from each mouse by clean catch method. […] A sterile petri dish was placed on the bench. Gently massage the abdomen, position the bottom of mouse over a fresh petri dish, and collect 1-2 fecal pellets. At sacrifice, fecal samples were aseptically collected from cecum. The tubes with feces were placed on ice immediately. These tubes were snap frozen in liquid nitrogen and stored at -80° C. for shipping. In this analysis, the 16S rRNA sequence data acquired by the next-generation sequencer from the fecal […] was used to perform community analysis using the QIIME2 program for microbial community analysis. The raw read data in FASTQ format output from the next-generation sequencer was trimmed to remove adapter sequences and low QV regions that may be included in the data. Cutadapt was used to remove adapter sequences from DNA sequencing reads. Trimmomatic was used as read trimming tool for Illumina NGS data. The adapter sequence was trimmed using the adapter trimming program “cutadapt” if the Trimming of the region at the end of the read sequence overlapped the corresponding sequence by at least one base (mismatch tolerance: 20%). When reads containing N were present in at least one of Read1 and Read2, both Read1 and Read2 were removed. Trimming of low QV regions was performed on the read data after processing using the QV trimming program “Trimmomatic” under the following conditions. The window of 20 bases is slid from the 5' side, and the area where the average QV is less than 20 is trimmed. After trimming, only the reads with more than 50 bases remaining in both Read1 and Read2 were taken as output. The microbial community analysis based on 16S rRNA sequence was performed on the sequence data trimmed in the previous section using the microbial community analysis program “QIIME2”. The annotation program “sklearn” included in QIIME2 is used to annotate the ASV (OTU) sequences. […]
smiles,measurement,setting,value
CCCc1nc2c(C)cc(-c3nc4ccccc4n3C)cc2n1Cc1ccc(-c2ccccc2C(=O)O)cc1 [Telmisartan],"Abundance: S24-7, —, —",line r298,0
same,"Abundance: Lachnospiraceae, —, —",line r300,60
same,"Abundance: Ruminococcaceae, Oscillospira, —",line r301,30
same,"Abundance: S24-7, —, —",line r302,0
same,"Abundance: —, —, —",line r303,107
same,"Abundance: Ruminococcaceae, Oscillospira, —",line r304,9
same,"Abundance: Bacteroidaceae, Bacteroides, acidifaciens",line r305,0
same,"Abundance: Bacteroidaceae, Bacteroides, acidifaciens",line r306,11
same,"Abundance: Lachnospiraceae, Dorea, —",line r307,8
same,"Abundance: Ruminococcaceae, Other, Other",line r308,11
same,"Abundance: Lachnospiraceae, —, —",line r309,13
same,"Abundance: Lachnospiraceae, —, —",line r310,0
same,"Abundance: S24-7, —, —",line r311,1
same,"Abundance: Lachnospiraceae, Other, Other",line r312,0
same,"Abundance: —, —, —",line r313,0
same,"Abundance: Ruminococcaceae, Oscillospira, —",line r314,9
same,"Abundance: Ruminococcaceae, Oscillospira, —",line r315,0
same,"Abundance: Lachnospiraceae, —, —",line r316,19
same,"Abundance: Erysipelotrichaceae, —, —",line r317,0
same,"Abundance: S24-7, —, —",line r318,0
same,"Abundance: Lachnospiraceae, —, —",line r319,9
same,"Abundance: Ruminococcaceae, Oscillospira, —",line r320,0
same,"Abundance: Lachnospiraceae, —, —",line r321,14
same,"Abundance: Other, Other, Other",line r322,0
same,"Abundance: F16, —, —",line r323,0
same,"Abundance: Christensenellaceae, —, —",line r324,5
same,"Abundance: Lachnospiraceae, Other, Other",line r325,0
same,"Abundance: Ruminococcaceae, Oscillospira, —",line r326,0
same,"Abundance: —, —, —",line r327,0
same,"Abundance: Ruminococcaceae, Other, Other",line r328,0
same,"Abundance: —, —, —",line r329,0
same,"Abundance: Lachnospiraceae, Other, Other",line r330,0
same,"Abundance: Other, Other, Other",line r331,0
same,"Abundance: Enterococcaceae, Vagococcus, —",line r332,26
same,"Abundance: Ruminococcaceae, Ruminococcus, —",line r333,0
same,"Abundance: Erysipelotrichaceae, Coprabacillus, —",line r334,0
same,"Abundance: Other, Other, Other",line r335,0
same,"Abundance: Ruminococcaceae, Oscillospira, —",line r336,9
same,"Abundance: Ruminococcaceae, Oscillospira, —",line r337,0
same,"Abundance: —, —, —",line r338,0
same,"Abundance: Lachnospiraceae, —, —",line r339,0
same,"Abundance: Ruminococcaceae, Oscillospira, —",line r340,31
same,"Abundance: Lachnospiraceae, Coprococcus, —",line r341,0
same,"Abundance: Ruminococcaceae, Other, Other",line r342,5
same,"Abundance: —, —, —",line r343,0
same,"Abundance: Erysipelotrichaceae, —, —",line r344,2
same,"Abundance: Rikenellaceae, —, —",line r345,11
same,"Abundance: —, —, —",line r346,0
same,"Abundance: —, —, —",line r347,40
same,"Abundance: —, —, —",line r348,0
same,"Abundance: Lachnospiraceae, —, —",line r349,0
same,"Abundance: —, —, —",line r350,0
same,"Abundance: Lachnospiraceae, Clostridium, Other",line r351,28
same,"Abundance: Erysipelotrichaceae, —, —",line r352,0
same,"Abundance: Streptococcaceae, Streptococcus, minor",line r353,0
same,"Abundance: Ruminococcaceae, Oscillospira, —",line r354,0
same,"Abundance: —, —, —",line r355,0
same,"Abundance: Lachnospiraceae, Other, Other",line r356,0
same,"Abundance: Other, Other, Other",line r357,0
same,"Abundance: —, —, —",line r358,0
same,"Abundance: —, —, —",line r359,0
same,"Abundance: Lachnospiraceae, —, —",line r362,12
same,"Abundance: Streptococcaceae, Streptococcus, —",line r363,0
same,"Abundance: S24-7, —, —",line r365,0
same,"Abundance: Other, Other, Other",line r367,42
same,"Abundance: [Mogibacteriaceae], —, —",line r368,0
same,"Abundance: Enterobacteriaceae, Enterobacter, Other",line r369,0
same,"Abundance: Erysipelotrichaceae, —, —",line r371,19
same,"Abundance: Aerococcaceae, Aerococcus, —",line r372,39
same,"Abundance: Ruminococcaceae, Oscillospira, —",line r373,0
same,"Abundance: Ruminococcaceae, Oscillospira, —",line r374,12
same,"Abundance: Other, Other, Other",line r375,0
same,"Abundance: Lachnospiraceae, Coprococcus, —",line r377,0
same,"Abundance: Other, Other, Other",line r378,0
same,"Abundance: Family Lachnospiraceae, Genus Other, Species Other",table row r380,0
same,"Abundance: Family Ruminococcaceae, Genus Oscillospira, Species —",table row r381,0
same,"Abundance: Family S24-7, Genus —, Species —",table row r382,0
same,"Abundance: Family Ruminococcaceae, Genus Ruminococcus, Species —",table row r383,0
same,"Abundance: Family Ruminococcaceae, Genus Oscillospira, Species —",table row r384,0
same,"Abundance: Family Ruminococcaceae, Genus Ruminococcus, Species —",table row r389,0
same,"Abundance: Family Lachnospiraceae, Genus —, Species —",table row r390,0
same,"Abundance: Family Ruminococcaceae, Genus Oscillospira, Species —",table row r391,0
same,"Abundance: Family Corynebacteriaceae, Genus Corynebacterium, Species stationis",table row r394,0
same,"Abundance: Family Ruminococcaceae, Genus Other, Species Other",table row r395,0
same,"Abundance: Family S24-7, Genus —, Species —",table row r396,13
same,"Abundance: Family Ruminococcaceae, Genus Oscillospira, Species —",table row r397,26
same,"Abundance: Family Ruminococcaceae, Genus Oscillospira, Species —",table row r398,0
same,"Abundance: Family Ruminococcaceae, Genus Ruminococcus, Species —",table row r399,0
same,"Abundance: Family [Mogibacteriaceae], Genus —, Species —",table row r400,0
same,"Abundance: Family Erysipelotrichaceae, Genus Coprobacillus, Species —",table row r401,0
same,"Abundance: Family Erysipelotrichaceae, Genus Clostridium, Species cocleatum",table row r402,1
same,"Abundance: Family S24-7, Genus —, Species —",table row r403,0
same,"Abundance: Family Coriobacteriaceae, Genus —, Species —",table row r404,0
same,"Abundance: Family Coriobacteriaceae, Genus Adlercreutzia, Species —",table row r405,0
same,"Abundance: Family Enterococcaceae, Genus Vagococcus, Species —",table row r407,0
same,"Abundance: Family [Mogibacteriaceae], Genus —, Species —",table row r409,6
same,"Abundance: Family S24-7, Genus —, Species —",table row r413,11
same,"Abundance: Family Ruminococcaceae, Genus Oscillospira, Species —",table row r414,0
same,"Abundance: Family Planococcaceae, Genus Sporosarcina, Species —",table row r415,0
same,"Abundance: Family Erysipelotrichaceae, Genus Other, Species Other",table row r417,0
same,"Abundance: Family Ruminococcaceae, Genus Ruminococcus, Species —",table row r419,0
same,"Abundance: Family Coriobacteriaceae, Genus Adlercreutzia, Species —",table row r423,0
same,"Abundance: Family Other, Genus Other, Species Other",table row r424,0
same,"Abundance: Family Ruminococcaceae, Genus Other, Species Other",table row r425,0
